{"source": "patent US7445765B2", "about": "“Radiopharmaceutical for diagnostic imaging containing a technetium-99m nitride heterocomplex” (Nihon Medi-Physics Co., Ltd., priority 2000, dated 2008)", "experiment": "Biodistribution of the 99mTc(N) heterocomplexes in rats (organ uptake, heart accumulation, heart/lung and heart/liver ratios)", "assay_type": "in vivo, female Sprague-Dawley rats", "conditions": "rats", "description": "The biodistribution was measured by using female Sprague-Dawley rats (SD rats) weighing 200 g to 250 g. Each of the ^99mTc(N) heterocomplexes purified in the manner described above was diluted with phosphate buffer (0.1 M, pH=7.4) to obtain a final solution having an ethanol content of 10%. After the SD rats were anesthetized with an intramuscular injection of a mixture of ketamine (80 mg/kg) and xilazine (19 mg/kg), the jugular vein of each rat was surgically exposed and 100 μL (300 to 370 kBq) of the solution containing each ^99mTc(N) heterocomplexes prepared in the manner described above was injected in the jugular vein. The rats (n=3) were sacrificed by cervical dislocation at different times post injection. The blood was withdrawn from the heart through a syringe and counted. It was assumed that the whole blood content was 6.5% of the total body weight. The organs were excised from the rats, washed with physiological saline, weighed, and counted in a NaI well counter.\nFor comparison, Tables 19 and 20 show the results, obtained in the same manner as above, of measuring the biodistribution of (^99mTc) (MIBI) and (^99mTc) (Tf) which have been used as pharmaceuticals for diagnostic imaging for blood flow in myocardium.\nTables 21 to 23 show data showing the variations with time of heart accumulation, heart/lung ratios and heart/liver ratios for the ^99mTc(N) heterocomplexes of the present invention."}
{"compound": "CCOCCC[P]1(CCCOCC)CCN(CCOCC)CC[P](CCCOCC)(CCCOCC)[99Tc+]12(#[N])[S]C(N(CCOCC)CCOCC)=[S]2", "note": "[PNP6•DBODC]", "values": [{"measurement": "Biodistribution, Adrenal glands", "setting": "0 min", "value": 2.60, "unit": "% dose/g"}, {"measurement": "Biodistribution, Blood", "setting": "0 min", "value": 1.42, "unit": "% dose/g"}, {"measurement": "Biodistribution, Brain", "setting": "0 min", "value": 0.18, "unit": "% dose/g"}, {"measurement": "Biodistribution, Heart", "setting": "0 min", "value": 2.26, "unit": "% dose/g"}, {"measurement": "Biodistribution, Intestine", "setting": "0 min", "value": 2.91, "unit": "% dose/g"}, {"measurement": "Biodistribution, Kidneys", "setting": "0 min", "value": 5.56, "unit": "% dose/g"}, {"measurement": "Biodistribution, Liver", "setting": "0 min", "value": 3.59, "unit": "% dose/g"}, {"measurement": "Biodistribution, Lungs", "setting": "0 min", "value": 3.87, "unit": "% dose/g"}, {"measurement": "Biodistribution, Muscle", "setting": "0 min", "value": 0.06, "unit": "% dose/g"}, {"measurement": "Biodistribution, Spleen", "setting": "0 min", "value": 1.68, "unit": "% dose/g"}, {"measurement": "Biodistribution, Submax. glands", "setting": "0 min", "value": 1.17, "unit": "% dose/g"}, {"measurement": "Biodistribution, Adrenal glands", "setting": "2 min", "value": 3.49, "unit": "% dose/g"}, {"measurement": "Biodistribution, Blood", "setting": "2 min", "value": 0.17, "unit": "% dose/g"}, {"measurement": "Biodistribution, Brain", "setting": "2 min", "value": 0.03, "unit": "% dose/g"}, {"measurement": "Biodistribution, Heart", "setting": "2 min", "value": 1.241, "unit": "% dose/g"}, {"measurement": "Biodistribution, Intestine", "setting": "2 min", "value": 3.54, "unit": "% dose/g"}, {"measurement": "Biodistribution, Kidneys", "setting": "2 min", "value": 9.57, "unit": "% dose/g"}, {"measurement": "Biodistribution, Liver", "setting": "2 min", "value": 5.94, "unit": "% dose/g"}, {"measurement": "Biodistribution, Lungs", "setting": "2 min", "value": 1.25, "unit": "% dose/g"}, {"measurement": "Biodistribution, Muscle", "setting": "2 min", "value": 0.17, "unit": "% dose/g"}, {"measurement": "Biodistribution, Spleen", "setting": "2 min", "value": 3.85, "unit": "% dose/g"}, {"measurement": "Biodistribution, Submax. glands", "setting": "2 min", "value": 1.26, "unit": "% dose/g"}, {"measurement": "Biodistribution, Adrenal glands", "setting": "10 min", "value": 4.48, "unit": "% dose/g"}, {"measurement": "Biodistribution, Blood", "setting": "10 min", "value": 0.06, "unit": "% dose/g"}, {"measurement": "Biodistribution, Brain", "setting": "10 min", "value": 0.03, "unit": "% dose/g"}, {"measurement": "Biodistribution, Heart", "setting": "10 min", "value": 1.39, "unit": "% dose/g"}, {"measurement": "Biodistribution, Intestine", "setting": "10 min", "value": 6.21, "unit": "% dose/g"}, {"measurement": "Biodistribution, Kidneys", "setting": "10 min", "value": 9.80, "unit": "% dose/g"}, {"measurement": "Biodistribution, Liver", "setting": "10 min", "value": 7.71, "unit": "% dose/g"}, {"measurement": "Biodistribution, Lungs", "setting": "10 min", "value": 1.10, "unit": "% dose/g"}, {"measurement": "Biodistribution, Muscle", "setting": "10 min", "value": 0.16, "unit": "% dose/g"}, {"measurement": "Biodistribution, Spleen", "setting": "10 min", "value": 4.00, "unit": "% dose/g"}, {"measurement": "Biodistribution, Submax. glands", "setting": "10 min", "value": 1.27, "unit": "% dose/g"}, {"measurement": "Biodistribution, Adrenal glands", "setting": "20 min", "value": 3.19, "unit": "% dose/g"}, {"measurement": "Biodistribution, Blood", "setting": "20 min", "value": 0.03, "unit": "% dose/g"}, {"measurement": "Biodistribution, Brain", "setting": "20 min", "value": 0.03, "unit": "% dose/g"}, {"measurement": "Biodistribution, Heart", "setting": "20 min", "value": 1.18, "unit": "% dose/g"}, {"measurement": "Biodistribution, Intestine", "setting": "20 min", "value": 8.54, "unit": "% dose/g"}, {"measurement": "Biodistribution, Kidneys", "setting": "20 min", "value": 8.18, "unit": "% dose/g"}, {"measurement": "Biodistribution, Liver", "setting": "20 min", "value": 6.55, "unit": "% dose/g"}, {"measurement": "Biodistribution, Lungs", "setting": "20 min", "value": 0.80, "unit": "% dose/g"}, {"measurement": "Biodistribution, Muscle", "setting": "20 min", "value": 0.09, "unit": "% dose/g"}, {"measurement": "Biodistribution, Spleen", "setting": "20 min", "value": 3.13, "unit": "% dose/g"}, {"measurement": "Biodistribution, Submax. glands", "setting": "20 min", "value": 1.03, "unit": "% dose/g"}, {"measurement": "Biodistribution, Adrenal glands", "setting": "30 min", "value": 3.08, "unit": "% dose/g"}, {"measurement": "Biodistribution, Blood", "setting": "30 min", "value": 0.05, "unit": "% dose/g"}, {"measurement": "Biodistribution, Brain", "setting": "30 min", "value": 0.02, "unit": "% dose/g"}, {"measurement": "Biodistribution, Heart", "setting": "30 min", "value": 1.05, "unit": "% dose/g"}, {"measurement": "Biodistribution, Intestine", "setting": "30 min", "value": 7.75, "unit": "% dose/g"}, {"measurement": "Biodistribution, Kidneys", "setting": "30 min", "value": 7.52, "unit": "% dose/g"}, {"measurement": "Biodistribution, Liver", "setting": "30 min", "value": 4.66, "unit": "% dose/g"}, {"measurement": "Biodistribution, Lungs", "setting": "30 min", "value": 0.60, "unit": "% dose/g"}, {"measurement": "Biodistribution, Muscle", "setting": "30 min", "value": 0.11, "unit": "% dose/g"}, {"measurement": "Biodistribution, Spleen", "setting": "30 min", "value": 2.43, "unit": "% dose/g"}, {"measurement": "Biodistribution, Submax. glands", "setting": "30 min", "value": 1.08, "unit": "% dose/g"}, {"measurement": "Biodistribution, Adrenal glands", "setting": "60 min", "value": 3.49, "unit": "% dose/g"}, {"measurement": "Biodistribution, Blood", "setting": "60 min", "value": 0.02, "unit": "% dose/g"}, {"measurement": "Biodistribution, Brain", "setting": "60 min", "value": 0.01, "unit": "% dose/g"}, {"measurement": "Biodistribution, Heart", "setting": "60 min", "value": 1.10, "unit": "% dose/g"}, {"measurement": "Biodistribution, Intestine", "setting": "60 min", "value": 8.37, "unit": "% dose/g"}, {"measurement": "Biodistribution, Kidneys", "setting": "60 min", "value": 6.60, "unit": "% dose/g"}, {"measurement": "Biodistribution, Liver", "setting": "60 min", "value": 3.55, "unit": "% dose/g"}, {"measurement": "Biodistribution, Lungs", "setting": "60 min", "value": 0.48, "unit": "% dose/g"}, {"measurement": "Biodistribution, Muscle", "setting": "60 min", "value": 0.12, "unit": "% dose/g"}, {"measurement": "Biodistribution, Spleen", "setting": "60 min", "value": 2.64, "unit": "% dose/g"}, {"measurement": "Biodistribution, Submax. glands", "setting": "60 min", "value": 1.30, "unit": "% dose/g"}, {"measurement": "Biodistribution, Adrenal glands", "setting": "120 min", "value": 3.47, "unit": "% dose/g"}, {"measurement": "Biodistribution, Blood", "setting": "120 min", "value": 0.02, "unit": "% dose/g"}, {"measurement": "Biodistribution, Brain", "setting": "120 min", "value": 0.01, "unit": "% dose/g"}, {"measurement": "Biodistribution, Heart", "setting": "120 min", "value": 1.29, "unit": "% dose/g"}, {"measurement": "Biodistribution, Intestine", "setting": "120 min", "value": 9.70, "unit": "% dose/g"}, {"measurement": "Biodistribution, Kidneys", "setting": "120 min", "value": 8.83, "unit": "% dose/g"}, {"measurement": "Biodistribution, Liver", "setting": "120 min", "value": 2.55, "unit": "% dose/g"}, {"measurement": "Biodistribution, Lungs", "setting": "120 min", "value": 0.33, "unit": "% dose/g"}, {"measurement": "Biodistribution, Muscle", "setting": "120 min", "value": 0.14, "unit": "% dose/g"}, {"measurement": "Biodistribution, Spleen", "setting": "120 min", "value": 2.02, "unit": "% dose/g"}, {"measurement": "Biodistribution, Submax. glands", "setting": "120 min", "value": 1.36, "unit": "% dose/g"}]}
{"compound": "CCOCCN1CC[P](CCCOC)(CCCOC)[99Tc+]2(#[N])([S]C(N(CCOCC)CCOCC)=[S]2)[P](CCCOC)(CCCOC)CC1", "note": "[[^99mTc(N) (PNP5) (DBODC)^+]]", "values": [{"measurement": "Heart/liver ratio in biodistribution", "setting": "0 min", "value": 6.11}, {"measurement": "Heart/lung ratio in biodistribution", "setting": "0 min", "value": 0.76}, {"measurement": "Heart/liver ratio in biodistribution", "setting": "2 min", "value": 1.48}, {"measurement": "Heart/lung ratio in biodistribution", "setting": "2 min", "value": 3.98}, {"measurement": "Heart/liver ratio in biodistribution", "setting": "10 min", "value": 2.29}, {"measurement": "Heart/lung ratio in biodistribution", "setting": "10 min", "value": 4.19}, {"measurement": "Heart/liver ratio in biodistribution", "setting": "20 min", "value": 3.78}, {"measurement": "Heart/lung ratio in biodistribution", "setting": "20 min", "value": 6.37}, {"measurement": "Heart/liver ratio in biodistribution", "setting": "30 min", "value": 5.18}, {"measurement": "Heart/lung ratio in biodistribution", "setting": "30 min", "value": 5.83}, {"measurement": "Heart/liver ratio in biodistribution", "setting": "60 min", "value": 18.8}, {"measurement": "Heart/lung ratio in biodistribution", "setting": "60 min", "value": 8.17}, {"measurement": "Heart/liver ratio in biodistribution", "setting": "120 min", "value": 33.1}, {"measurement": "Heart/lung ratio in biodistribution", "setting": "120 min", "value": 13.24}]}
